Assay results: patent publication US20040110802A1, “Antibacterial benzoic acid derivatives” (priority 2002, published 2004)
≈ marks a conversion by molar mass, not a printed value.

Tested on: SAUR 9218
Assay: MIC Test Method, standard agar dilution
Type: cell-based
Details: agar dilution, Mueller Hinton agar, incubated overnight at 35° C.; lowest concentration that inhibits visible growth; read-out: SAUR 9218 MIC
Procedure, shortened: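 Agar dilution in Mueller Hinton agar with serial 2-fold compound dilutions. Staphylococcus aureus strain 9218 spotted at approximately 10^4 to 10^5 cells per spot, incubated overnight at 35 °C; MIC (μg/ml) is the lowest concentration preventing visible growth.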

Row | MIC [µg/mL] | SMILES
1 | 0.5 (≈ 1.08 µM) | CS(=O)(=O)c1ccc(-c2ccc3onc(C(=O)Nc4ccc(C#N)cc4C(=O)O)c3c2)cc1
2 | 0.25 (≈ 0.577 µM) | N#Cc1ccc(NC(=O)c2cc(-c3ccccc3OC3CCOCC3)on2)c(C(=O)O)c1
3 | 1 (≈ 2.92 µM) | O=C(Nc1ccc(Cl)cc1C(=O)O)c1ncc(-c2ccccc2)o1
4 | 4 (≈ 9.52 µM) | COC(=O)CC(=O)Nc1cccc2cc(C(=O)Nc3ccc(C#N)cc3C(=O)O)[nH]c12
5 | 1 (≈ 2.4 µM) | COc1cccc(-c2cnc(C(=O)Nc3ccc(Br)cc3C(=O)O)o2)c1
6 | 4 (≈ 9.11 µM) | CC1(C)OCC(CCc2cc(C(=O)Nc3ccc(Br)cc3C(=O)O)no2)O1 (stereo not drawn)
7 | 0.125 (≈ 0.354 µM) | Cc1ccsc1-c1cc(C(=O)Nc2ccc(C#N)cc2C(=O)O)no1
8 | 4 (≈ 10.9 µM) | N#Cc1ccc(NC(=O)c2cncc(C#Cc3ccccc3)c2)c(C(=O)O)c1
9 | 64 (≈ 156 µM) | O=C(Nc1ccc(Br)cc1C(=O)O)c1cnc(CC[C@H](O)CO)cn1
10 | 1 (≈ 2.17 µM) | Cn1c(C(=O)Nc2ccc(C#N)cc2C(=O)O)cc2cccc(NC(=O)NCC3CCCO3)c21 (stereo not drawn)
11 | 32 (≈ 52.9 µM) | Cc1sc(C(=O)Nc2ccc(C#N)cc2C(=O)O)cc1S(=O)(=O)N1CCC(O)(c2ccc(Br)cc2)CC1
12 | > 128 | Cc1c(S(=O)(=O)NCCCn2ccnc2)csc1C(=O)Nc1ccc(Br)cc1C(=O)O
